Test results from US8389523B2, “Substituted quinoxaline and an agrochemical composition thereof” (Kumiai Chemical Industry Co., Ltd., priority 2007, dated 2013).

Key:
Type in all cases: in vivo
Parameters in all cases: scale not given here
[1] = test system: Echinochloa oryzicola Vasing; assay: Herbicidal effects in paddy field soil treatment (Test Example 1); conditions: for Herbicidal effects index, Echinochloa oryzicola Vasing: paddy field soil treatment, 1000 g of the active ingredient per hectare, wettable powder added dropwise on water surface, 21st day after treatment
Procedure, shortened: (§1)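 Scoring of herbicidal effect took place 21 days after treatment, using a rating scale, on plants grown in a greenhouse. The test compound, formulated as a wettable powder and diluted with water, had been applied dropwise to the flood water at 1000 g active ingredient per hectare, one day after sowing into puddled paddy soil held under 3 cm of water.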

[2] = test system: Scirpus juncoides Roxb. var. ohwianus. T. Koyama; assay: as above; conditions: for Herbicidal effects index, Scirpus juncoides Roxb. var. ohwianus. T. Koyama: paddy field soil treatment, 1000 g of the active ingredient per hectare, wettable powder added dropwise on water surface, 21st day after treatment
Procedure, shortened: as §1

[3] = test system: Monochoria vaginalis (Burm. f.) Presl var. plantaginea (Roxb.) Solms-Laub.; assay: as above; conditions: for Herbicidal effects index, Monochoria vaginalis (Burm. f.) Presl var. plantaginea (Roxb.) Solms-Laub.: paddy field soil treatment, 1000 g of the active ingredient per hectare, wettable powder added dropwise on water surface, 21st day after treatment
Procedure, shortened: as §1

[4] = test system: Echinochloa crus-galli (L.) P. Beauv. var. crus-galli; assay: Herbicidal effects in upland field foliar treatment (Test Example 3); conditions: criteria of Table 138; for herbicidal effects on Echinochloa crus-galli (L.) P. Beauv. var. crus-galli: 1000 g of the active ingredient per hectare, 14th day after the treatment, wettable powder; for herbicidal effect (index) on Echinochloa crus-galli (L.) P. Beauv. var. crus-galli: 1000 g active ingredient per hectare, 14th day after treatment
Procedure, shortened: (§2)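 Herbicidal activity is rated visually on a fixed scale 14 days after foliar application. Plants raised from seed in upland field soil for two weeks under glass receive a water dilution of a wettable powder at 1000 g a.i. per hectare in 1000 L/ha.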

Amaranthus viridis L. [5] = assay: as above; conditions: criteria of Table 138; for herbicidal effects on Amaranthus viridis L.: 1000 g of the active ingredient per hectare, 14th day after the treatment, wettable powder; for herbicidal effect (index) on Amaranthus viridis L.: 1000 g active ingredient per hectare, 14th day after treatment
Procedure, shortened: as §2

[6] = test system: Abutilon theophrasti medicus; assay: as above; conditions: criteria of Table 138; for herbicidal effects on Abutilon theophrasti medicus: 1000 g of the active ingredient per hectare, 14th day after the treatment, wettable powder; for herbicidal effect (index) on Abutilon theophrasti medicus: 1000 g active ingredient per hectare, 14th day after treatment
Procedure, shortened: as §2

Amaranthus viridis L. [7] = assay: Herbicidal effects in upland field soil treatment (Test Example 2); conditions: 1000 g active ingredient per hectare, 21st day after treatment, criteria of Table 138
Procedure, shortened: (§3)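 Herbicidal effect was rated visually against set criteria on the 21st day after a pre-emergence soil-surface spray of diluted wettable powder delivering 1000 g active ingredient per hectare (1000 L/ha). Seeds had been sown and covered in upland field soil; plants grew in a greenhouse.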

[8] = test system: Abutilon theophrasti medicus; assay: as above; conditions: 1000 g active ingredient per hectare, 21st day after treatment, criteria of Table 138
Procedure, shortened: as §3

[9] = paddy field soil treatment (Test Example 1), criteria of Table 138

Row | SMILES | Herbicidal effects index, Echinochloa oryzicola Vasing [1] | Herbicidal effects index, Scirpus juncoides Roxb. var. ohwianus. T. Koyama [2] | Herbicidal effects index, Monochoria vaginalis (Burm. f.) Presl var. plantaginea (Roxb.) Solms-Laub. [3] | herbicidal effects on Echinochloa crus-galli (L.) P. Beauv. var. crus-galli [4] | herbicidal effects on Amaranthus viridis L. (Amaranthus viridis L. [5]) | herbicidal effects on Abutilon theophrasti medicus [6] | herbicidal effect (index) on Amaranthus viridis L. (Amaranthus viridis L. [7]) | herbicidal effect (index) on Abutilon theophrasti medicus [8] | herbicidal effect (index) on Echinochloa crus-galli (L.) P. Beauv. var. crus-galli [4] | herbicidal effect (index) on Amaranthus viridis L. (Amaranthus viridis L. [5]) | herbicidal effect (index) on Abutilon theophrasti medicus [6] | herbicidal effect (index) on Echinochloa oryzicola Vasing [1, 9] | herbicidal effect (index) on Scirpus juncoides Roxb. var. ohwianus. T. Koyama [2, 9] | herbicidal effect (index) on Monochoria vaginalis (Burm. f.) Presl var. plantaginea (Roxb.) Solms-Laub. [3, 9]
1 | CC(CCn1c(=O)c(C(=O)C2=C(O)CCCC2=O)nc2cccnc21)=C(F)F [III-232] | 5 | 5 | 5 | 5 | 5 | 5 | 5 | 5 | – | – | – | – | – | –
2 | CC1(C)C(=O)C(C(=O)c2nc3ccccc3n(-c3ccccc3)c2=O)=C(O)C(C)(C)C1=O [II-5] | 5 | 5 | 5 | – | – | – | 5 | 5 | 5 | 5 | 5 | – | – | –
3 | CCCn1c(=O)c(C(=O)C2=C(O)CCCC2=O)nc2cccnc21 [III-12] | 5 | 5 | 5 | 4 | 5 | 5 | 5 | 4 | – | – | – | – | – | –
4 | N#CCCOCn1c(=O)c(C(=O)C2=C(O)CCCC2=O)nc2ccccc21 [I-68] | 4 | 5 | 5 | – | – | – | 5 | 5 | 4 | 5 | 5 | – | – | –
5 | O=C1CCCC(O)=C1C(=O)c1nc2cccnc2n(Cc2ccccc2C(F)(F)F)c1=O [III-117] | 5 | 5 | 5 | 5 | 5 | 5 | 5 | 5 | – | – | – | – | – | –
6 | O=C1CCCC(O)=C1C(=O)c1nc2ccccc2n(CC2CCCO2)c1=O (stereo not shown) [I-211] | 4 | 5 | 5 | – | – | – | 5 | 5 | 5 | 5 | 5 | – | – | –
7 | N#Cc1cccc(-n2c(=O)c(C(=O)C3=C(O)CCCC3=O)nc3ccccc32)c1 [II-136] | 5 | 5 | 5 | 5 | 5 | 5 | 5 | 5 | – | – | – | – | – | –
8 | O=C1CCCC(O)=C1C(=O)c1nc2ccccc2n(-c2ccc3c(c2)CCCC3)c1=O [II-223] | 5 | 5 | 5 | 5 | 5 | 5 | 5 | 4 | – | – | – | – | – | –
9 | Cc1cccc(-n2c(=O)c(C(=O)C3=C(O)CCCC3=O)nc3ccccc32)c1 [II-20] | 5 | 5 | 5 | 5 | 5 | 5 | 5 | 5 | – | – | – | – | – | –
10 | O=C1CCCC(O)=C1C(=O)c1nc2ccccc2n(-c2cnccn2)c1=O [I-199] | 5 | 5 | 5 | – | – | – | 5 | 5 | 5 | 5 | 5 | – | – | –
11 | O=C1CCCC(O)=C1C(=O)c1nc2cc(C(F)(F)F)ccc2n(-c2ccccc2)c1=O [II-249] | 5 | 5 | 5 | 5 | 5 | 5 | 5 | 5 | – | – | – | – | – | –
12 | O=C1CCCC(O)=C1C(=O)c1nc2ccccc2n(-c2cccc(C(F)(F)F)c2)c1=O [II-39] | 5 | 5 | 5 | 5 | 5 | 5 | 5 | 5 | – | – | – | – | – | –
13 | CC1(C)CC(=O)C(C(=O)c2nc3ccccc3n(-c3ccc4c(c3)OCCO4)c2=O)=C(O)C1 [II-228] | 5 | 5 | 5 | 5 | 5 | 5 | 5 | 5 | – | – | – | – | – | –
14 | Cc1ccc(-n2c(=O)c(C(=O)C3=C(O)CCCC3=O)nc3cccnc32)cc1F [IV-222, 4-(3-fluoro-4-methylphenyl)-2-(2-hydroxy-6-oxo-1-cyclohexenecarbonyl)-pyrido[2,3-b]pyrazin-3 (4H)-one] | – | – | – | 5 | 5 | 5 | 5 | 5 | – | – | – | 5 | 5 | 5
